# Reference: ChEMBL document CHEMBL1201862, “PubChem BioAssay data set” (2004)
# Activity calls are given as the source filed them.
# Assays:
# [1] = biological target: T1, Polyadenylate-binding protein 1 (Homo sapiens, UniProt P11940); test: MLLE binding blockers, Cy5 peptide tracer – biochemical, fluorescence polarization, Cy5-PAM2 peptide, secondary, miRNA deadenylation inhibitor project, dose response (AID 602260); type: functional; conditions: read-out: IC50_Mean
# [2] = biological target: T1, Polyadenylate-binding protein 1; test: MLLE domain peptide-binding blockers, IC50 – biochemical, fluorescence polarization, FITC-PAM2 peptide, dose response (AID 602259); type: functional; conditions: read-out: IC50_Mean
# [3] = biological target: T2, Calpain-2 catalytic subunit (Sus scrofa, UniProt P43367); test: m-calpain protease blockers, concentration series – biochemical, fluorogenic peptide substrate, dose response (AID 1420); type: functional
# T2 sequence (P43367 whole entry): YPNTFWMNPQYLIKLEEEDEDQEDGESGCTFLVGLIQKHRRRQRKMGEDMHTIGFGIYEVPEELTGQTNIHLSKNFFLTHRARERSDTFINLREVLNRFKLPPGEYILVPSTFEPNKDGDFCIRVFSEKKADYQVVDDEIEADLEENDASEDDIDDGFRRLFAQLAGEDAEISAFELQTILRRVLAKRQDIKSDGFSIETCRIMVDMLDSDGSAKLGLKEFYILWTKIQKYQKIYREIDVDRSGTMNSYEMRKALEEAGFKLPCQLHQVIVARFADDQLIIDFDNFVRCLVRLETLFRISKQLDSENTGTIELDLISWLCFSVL
# [4] = biological target: FAD-linked sulfhydryl oxidase ALR (Homo sapiens, UniProt P55789); test: ALR-catalysed DTT oxidation blockers – biochemical, H2O2 detection, luminescence, cherry-pick, dose response (AID 493248)
# Chain of FAD-linked sulfhydryl oxidase ALR (P55789 whole entry): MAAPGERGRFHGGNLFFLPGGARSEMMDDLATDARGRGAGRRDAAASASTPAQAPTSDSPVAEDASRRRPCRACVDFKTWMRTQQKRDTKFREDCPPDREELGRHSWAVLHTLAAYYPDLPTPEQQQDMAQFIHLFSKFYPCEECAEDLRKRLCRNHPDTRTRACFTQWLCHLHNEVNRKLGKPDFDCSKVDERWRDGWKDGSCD
# [5] = biological target: T3, Fatty acid synthase (Homo sapiens, UniProt P49327); test: inhibition of human FAS-TE enzyme activity – biochemical, endpoint fluorescence intensity, uHTS hits, dose response (AID 624327); type: functional;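 further: fluorescence from hydrolysis of an O-methyl fluorescein acyl ester substrate by the enzyme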
# T3 sequence (P49327 whole entry): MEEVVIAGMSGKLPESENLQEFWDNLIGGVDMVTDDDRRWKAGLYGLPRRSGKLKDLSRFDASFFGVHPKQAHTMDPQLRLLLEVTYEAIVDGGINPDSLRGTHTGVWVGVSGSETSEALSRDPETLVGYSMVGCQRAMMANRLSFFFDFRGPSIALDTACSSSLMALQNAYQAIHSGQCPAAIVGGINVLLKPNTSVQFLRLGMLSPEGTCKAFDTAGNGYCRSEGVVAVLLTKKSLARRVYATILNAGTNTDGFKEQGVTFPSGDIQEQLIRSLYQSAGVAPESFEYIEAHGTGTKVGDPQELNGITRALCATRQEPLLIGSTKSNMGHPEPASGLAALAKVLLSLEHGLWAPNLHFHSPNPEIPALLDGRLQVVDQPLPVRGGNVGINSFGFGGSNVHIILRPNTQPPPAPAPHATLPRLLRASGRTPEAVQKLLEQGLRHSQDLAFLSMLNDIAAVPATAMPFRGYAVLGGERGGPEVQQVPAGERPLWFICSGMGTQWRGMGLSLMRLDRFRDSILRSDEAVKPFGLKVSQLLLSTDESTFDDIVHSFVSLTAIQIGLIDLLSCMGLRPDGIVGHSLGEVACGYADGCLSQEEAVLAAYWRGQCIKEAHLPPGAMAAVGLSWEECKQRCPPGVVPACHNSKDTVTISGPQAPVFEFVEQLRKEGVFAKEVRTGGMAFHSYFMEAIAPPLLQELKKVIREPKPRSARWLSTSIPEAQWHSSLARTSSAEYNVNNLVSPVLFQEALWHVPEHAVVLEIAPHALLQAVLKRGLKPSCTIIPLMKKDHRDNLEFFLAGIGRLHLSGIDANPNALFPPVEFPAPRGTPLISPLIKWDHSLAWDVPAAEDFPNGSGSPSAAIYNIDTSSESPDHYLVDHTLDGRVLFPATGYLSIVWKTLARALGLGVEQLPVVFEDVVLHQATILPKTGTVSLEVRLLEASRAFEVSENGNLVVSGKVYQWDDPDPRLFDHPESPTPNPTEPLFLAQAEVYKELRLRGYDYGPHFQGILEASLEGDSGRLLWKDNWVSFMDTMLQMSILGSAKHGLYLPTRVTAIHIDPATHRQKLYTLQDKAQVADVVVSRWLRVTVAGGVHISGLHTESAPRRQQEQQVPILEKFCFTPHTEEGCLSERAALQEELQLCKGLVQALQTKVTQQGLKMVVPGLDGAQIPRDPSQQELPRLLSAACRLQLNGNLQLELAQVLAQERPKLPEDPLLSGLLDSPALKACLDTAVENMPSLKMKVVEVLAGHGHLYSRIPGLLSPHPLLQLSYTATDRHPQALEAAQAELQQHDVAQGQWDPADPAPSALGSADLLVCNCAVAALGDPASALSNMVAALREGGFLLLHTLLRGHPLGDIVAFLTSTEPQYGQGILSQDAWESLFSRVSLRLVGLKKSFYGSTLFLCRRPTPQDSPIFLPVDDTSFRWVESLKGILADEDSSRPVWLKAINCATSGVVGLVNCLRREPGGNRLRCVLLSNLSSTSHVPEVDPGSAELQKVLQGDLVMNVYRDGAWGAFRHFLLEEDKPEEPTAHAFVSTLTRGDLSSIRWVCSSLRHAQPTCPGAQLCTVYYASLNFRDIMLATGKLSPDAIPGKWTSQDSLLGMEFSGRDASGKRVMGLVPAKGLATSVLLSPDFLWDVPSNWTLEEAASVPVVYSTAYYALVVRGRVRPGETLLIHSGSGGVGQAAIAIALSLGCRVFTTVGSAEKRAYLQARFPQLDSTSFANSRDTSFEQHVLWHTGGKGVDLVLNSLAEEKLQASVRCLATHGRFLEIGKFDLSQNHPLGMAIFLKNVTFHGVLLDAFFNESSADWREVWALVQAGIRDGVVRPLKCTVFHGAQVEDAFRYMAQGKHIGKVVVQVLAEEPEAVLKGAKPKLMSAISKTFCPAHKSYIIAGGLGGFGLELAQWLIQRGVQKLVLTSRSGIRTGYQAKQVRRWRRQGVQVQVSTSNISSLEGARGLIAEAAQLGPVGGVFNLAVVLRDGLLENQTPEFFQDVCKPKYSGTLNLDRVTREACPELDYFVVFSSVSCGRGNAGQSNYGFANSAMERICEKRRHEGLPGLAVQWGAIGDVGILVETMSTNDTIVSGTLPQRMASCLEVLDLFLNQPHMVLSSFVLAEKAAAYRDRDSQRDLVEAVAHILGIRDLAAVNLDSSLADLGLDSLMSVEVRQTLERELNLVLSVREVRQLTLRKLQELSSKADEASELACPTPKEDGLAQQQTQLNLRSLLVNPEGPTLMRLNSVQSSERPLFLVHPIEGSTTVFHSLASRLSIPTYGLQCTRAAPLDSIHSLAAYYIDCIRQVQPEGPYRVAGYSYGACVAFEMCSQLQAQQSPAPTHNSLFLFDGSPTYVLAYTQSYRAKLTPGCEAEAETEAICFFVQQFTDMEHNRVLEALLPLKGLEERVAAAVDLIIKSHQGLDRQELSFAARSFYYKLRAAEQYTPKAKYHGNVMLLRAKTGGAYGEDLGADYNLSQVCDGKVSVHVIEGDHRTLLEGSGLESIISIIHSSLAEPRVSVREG
# [6] = biological target: T3, Fatty acid synthase; test: inhibition of human FAS-TE enzyme activity – biochemical, kinetic fluorescence intensity, dose response (AID 624326); type: functional;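 further: rate of fluorescence rise from hydrolysis of a fluorogenic O-methyl fluorescein ester substrate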
# [7] = tested on: BJ; test: BJ-TERT fibroblast viability loss – cell-based, RAS-independent, luminescence, dose response (AID 1933); type: functional; conditions: Homo sapiens
# [8] = tested on: BJ; test: cells; type: functional, cell-based; conditions: Homo sapiens
# [9] = tested on: BJ; test: BJ-TERT-LT-ST fibroblast viability loss – cell-based, RAS-independent, luminescence, dose response (AID 1935); type: functional; conditions: Homo sapiens;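 further: BJ fibroblasts immortalized with TERT plus LT and ST oncogenes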
# [10] = DRD fibroblast viability loss – cell-based, non-viral oncogenic, luminescence, dose response (AID 1934); type: functional; conditions: Homo sapiens
# [11] = cells; type: functional, cell-based
# [12] = cells; type: functional, cell-based; remark: listed apart in the source
# [13] = blockers of bursicon-stimulated LGR2 cAMP reporter – cell-based, HEK293, CRE-luciferase reporter, cherry pick, set 2, dose response (AID 743343); type: functional;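 further: transfected cells were stimulated with diluted bursicon conditioned medium after compound addition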
# [14] = blockade of melanocortin 4 receptor signaling – cell-based, plate reader, cherry pick, counter-screen for LGR2 antagonist project, dose response (AID 743444); type: functional;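 further: transfected HEK 293 cells stimulated with alpha-MSH peptide; potency of inhibitors of the alpha-MSH evoked signal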
# [15] = biological target: Glyceraldehyde-3-phosphate dehydrogenase (Homo sapiens, UniProt P04406)
# Chain of Glyceraldehyde-3-phosphate dehydrogenase (P04406 whole entry): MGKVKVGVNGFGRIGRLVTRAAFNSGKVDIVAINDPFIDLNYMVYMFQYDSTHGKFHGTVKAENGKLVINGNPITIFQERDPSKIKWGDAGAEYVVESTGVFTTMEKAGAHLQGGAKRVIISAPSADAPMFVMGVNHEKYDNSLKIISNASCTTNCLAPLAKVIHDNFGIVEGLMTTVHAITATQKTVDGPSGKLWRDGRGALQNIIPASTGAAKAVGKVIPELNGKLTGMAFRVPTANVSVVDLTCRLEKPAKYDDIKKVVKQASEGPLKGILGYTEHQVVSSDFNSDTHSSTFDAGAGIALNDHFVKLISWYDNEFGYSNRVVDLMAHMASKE
# [16] = tested on: Streptococcus sp. 'group A'; test: Streptococcus pyogenes SK(-)GAS viability under kanamycin – luminescence, BacTiterGlo, confirmation, counter-screen for streptokinase expression inhibitor project, dose response (AID 1900); type: functional, organism-based
# [17] = biological target: T4, Streptokinase A (Streptococcus pyogenes serotype M1, UniProt P10520); test: viability-normalized secreted streptokinase activity reduction – plasminogen activation absorbance, OD405, dose response (AID 1914); type: functional, Streptococcus pyogenes M1 GAS;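 further: secreted streptokinase activity via plasminogen activation per viability signal from cell pellet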
# T4 sequence (P10520 whole entry): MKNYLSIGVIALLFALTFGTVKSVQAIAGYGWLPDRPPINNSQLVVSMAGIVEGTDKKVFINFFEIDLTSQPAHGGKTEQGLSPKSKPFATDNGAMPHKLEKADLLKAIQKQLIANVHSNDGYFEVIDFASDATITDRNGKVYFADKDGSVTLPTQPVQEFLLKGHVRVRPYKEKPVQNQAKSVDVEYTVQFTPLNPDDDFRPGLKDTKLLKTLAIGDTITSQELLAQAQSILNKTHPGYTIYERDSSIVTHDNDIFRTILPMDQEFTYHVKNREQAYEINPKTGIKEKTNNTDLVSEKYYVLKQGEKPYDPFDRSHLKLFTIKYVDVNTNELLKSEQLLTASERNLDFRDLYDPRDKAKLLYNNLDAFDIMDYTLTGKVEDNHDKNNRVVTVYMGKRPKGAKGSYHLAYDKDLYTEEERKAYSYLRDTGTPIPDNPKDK
# [18] = tested on: Streptococcus; test: GAS UMAA2166 growth inhibition – luminescence, BacTiterGlo, counter-screen for streptokinase expression inhibitor project, dose response (AID 1915); type: functional, organism-based;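 further: potency for reduction of bacterial viability or growth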
# [19] = biological target: Nonstructural protein 1 (Influenza A virus, UniProt Q194T2); type: functional, Influenza A virus (A/California/07/2009(H1N1))
# Chain of Nonstructural protein 1 (Q194T2 whole entry): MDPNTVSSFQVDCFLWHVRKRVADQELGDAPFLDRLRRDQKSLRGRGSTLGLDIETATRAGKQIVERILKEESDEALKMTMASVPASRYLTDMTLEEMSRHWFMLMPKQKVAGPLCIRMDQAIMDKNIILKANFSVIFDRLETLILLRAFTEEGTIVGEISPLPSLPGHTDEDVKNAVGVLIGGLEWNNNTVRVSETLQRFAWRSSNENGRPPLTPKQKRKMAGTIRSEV
# [20] = biological target: Genome polyprotein (dengue virus type 2, UniProt P29990); test: flavivirus cap methylation enzyme inhibition – biochemical, confirmation dose response, primary screen (AID 588689); type: functional
# Chain of Genome polyprotein (P29990 2492-3391 limits assumed): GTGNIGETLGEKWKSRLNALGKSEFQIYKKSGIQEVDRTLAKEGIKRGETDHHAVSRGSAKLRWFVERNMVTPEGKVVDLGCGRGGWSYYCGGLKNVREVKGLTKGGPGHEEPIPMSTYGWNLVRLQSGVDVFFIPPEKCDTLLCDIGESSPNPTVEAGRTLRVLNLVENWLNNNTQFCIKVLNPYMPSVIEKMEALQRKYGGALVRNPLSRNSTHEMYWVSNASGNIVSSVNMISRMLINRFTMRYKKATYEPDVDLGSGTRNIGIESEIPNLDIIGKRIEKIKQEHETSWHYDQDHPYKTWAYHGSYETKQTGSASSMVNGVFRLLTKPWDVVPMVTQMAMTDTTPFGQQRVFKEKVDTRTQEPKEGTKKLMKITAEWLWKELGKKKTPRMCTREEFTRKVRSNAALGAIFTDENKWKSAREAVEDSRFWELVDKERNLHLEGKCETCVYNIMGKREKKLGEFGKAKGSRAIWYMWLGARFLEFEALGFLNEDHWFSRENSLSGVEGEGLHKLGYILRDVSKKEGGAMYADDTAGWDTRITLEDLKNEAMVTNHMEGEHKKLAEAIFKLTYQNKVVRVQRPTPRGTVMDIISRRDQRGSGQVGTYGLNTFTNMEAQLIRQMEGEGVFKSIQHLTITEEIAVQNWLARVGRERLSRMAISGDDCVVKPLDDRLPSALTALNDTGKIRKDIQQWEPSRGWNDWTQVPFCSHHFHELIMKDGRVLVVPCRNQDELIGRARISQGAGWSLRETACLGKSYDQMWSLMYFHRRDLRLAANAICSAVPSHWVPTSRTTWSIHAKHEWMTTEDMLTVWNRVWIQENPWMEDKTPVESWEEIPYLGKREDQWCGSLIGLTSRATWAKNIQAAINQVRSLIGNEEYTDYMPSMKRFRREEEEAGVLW
# [21] = THP-1 cell cytotoxicity, dose response, cytotoxicity control for non-replicating M. tuberculosis project (AID 489025); type: functional
# [22] = biological target: Glucose-6-phosphate 1-dehydrogenase (Homo sapiens, UniProt P11413); test: inhibition of Homo sapiens G6PD, dose series – biochemical, fluorescence, selectivity assay for P. falciparum G6PD inhibitor project, dose response (AID 504792); type: functional
# [23] = reduction of Shn3 3'UTR-driven luciferase in osteoblasts – cell-based, Clone20 osteoblasts, firefly luciferase, cherry-picked, dose response (AID 624132); type: functional;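 further: firefly luciferase luminescence from reporter carrying the Shn3 3'UTR in osteoblasts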
# [24] = non-specific 3'UTR reporter inhibition in Clone20-Shn3RL – cell-based, Renilla luciferase, cherry-picked, counter-screen for Shn3 inhibitor project, dose response (AID 624133); type: functional
# [25] = A549 cell cytotoxicity, dose response, cytotoxicity control, plate reader, cherry-pick, antagonist series (AID 743412); type: functional, cell-based
# T1 sequence (P11940 whole entry, the tested form may be a part): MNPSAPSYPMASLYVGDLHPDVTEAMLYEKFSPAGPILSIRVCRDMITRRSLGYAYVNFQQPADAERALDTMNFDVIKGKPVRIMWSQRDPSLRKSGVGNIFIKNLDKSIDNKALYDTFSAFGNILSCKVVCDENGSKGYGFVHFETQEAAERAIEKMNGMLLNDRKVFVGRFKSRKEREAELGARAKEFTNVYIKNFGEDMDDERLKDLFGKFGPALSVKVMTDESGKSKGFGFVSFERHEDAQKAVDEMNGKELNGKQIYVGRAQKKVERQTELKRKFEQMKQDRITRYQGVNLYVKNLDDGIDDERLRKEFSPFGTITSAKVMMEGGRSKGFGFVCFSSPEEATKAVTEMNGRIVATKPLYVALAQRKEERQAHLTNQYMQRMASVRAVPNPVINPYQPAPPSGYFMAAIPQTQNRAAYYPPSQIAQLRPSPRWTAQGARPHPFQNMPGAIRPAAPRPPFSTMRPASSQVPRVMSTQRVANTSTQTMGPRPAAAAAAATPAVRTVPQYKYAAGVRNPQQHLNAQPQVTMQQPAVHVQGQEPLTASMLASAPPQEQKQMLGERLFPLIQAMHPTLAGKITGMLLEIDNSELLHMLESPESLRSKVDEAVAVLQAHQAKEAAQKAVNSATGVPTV
smiles,measurement,setting,value
COc1ccc(CC2C(=O)N(C)C(=O)N(C)C2=O)c(OC)c1,IC50,[1],> 66 µM (inactive)
same,IC50,[2],> 66 µM (inactive)
COc1ccc(Cn2nc(-c3ccccc3)c(N3CCCCC3)cc2=O)cc1,IC50,[3],10.6 µM (not active)
Cn1c(S)nnc1CNS(=O)(=O)c1ccc(Br)cc1,AC50,[4],4.95 µM (active)
CC(NC(=O)COC(=O)c1cc([N+](=O)[O-])ccc1N1CCOCC1)c1ccc(F)cc1 (configuration not stated),IC50,[5],1.95 µM (active)
same,IC50,[6],1.48 µM (active)
Cc1nc(NC(=O)CCl)sc1C(=O)N(C)C,EC50,[7],> 150 µM (not active)
same,EC50,[8],> 150 µM (not active)
same,EC50,[9],> 150 µM (not active)
same,EC50,[10],28.3 µM (active)
S=C(Nc1ccc(Cl)cc1)Nc1ccc2c[nH]nc2c1,EC50,[11],> 350 µM (not active)
same,EC50,[12],> 350 µM (not active)
CCN1CCN(c2cc(C)c3cc(NC(S)=NCc4cccs4)ccc3n2)CC1,IC50,[3],10 µM (not active)
O=C(O)c1ccccc1C(=O)c1ccc(N2CCOCC2)c([N+](=O)[O-])c1,EC50,[7],> 150 µM (not active)
same,EC50,[8],> 150 µM (not active)
same,EC50,[9],> 150 µM (not active)
same,EC50,[10],> 150 µM (not active)
COCCN1CN(S(=O)(=O)c2ccccc2)c2nc3ccccc3nc21,IC50,[1],> 66 µM (inactive)
same,IC50,[2],55.4 µM (inactive)
COc1ccc(CNC(=O)c2ccc3c(c2)N(C)CCS3)cc1,AC50,[4],15.4 µM (active)
CCCCC1=CC2=CC(=O)C(C)(OC(=O)CC)C(=O)C2=CN1CCCCO (configuration not stated),IC50,[1],> 66 µM (inactive)
same,IC50,[2],> 66 µM (inactive)
Cc1cccc(NC(=O)COc2cccc3c2CCN(C)C3=O)c1C,EC50,[11],> 350 µM (not active)
same,EC50,[12],> 350 µM (not active)
CC(=O)c1cccc(NC(=S)NC(=O)c2ccc(Br)cc2)c1,IC50,[1],> 66 µM (inactive)
same,IC50,[2],> 66 µM (inactive)
O=C(CSc1ncnc2sc3c(c12)CCCC3)N1CCC(c2noc3ccc(F)cc23)CC1,EC50,[7],30.7 µM (active)
same,EC50,[8],> 150 µM (not active)
same,EC50,[9],> 150 µM (not active)
same,EC50,[10],> 150 µM (not active)
CCC(C(=O)NC1CCCC1)N(Cc1ccco1)C(=O)Cn1nnc(-c2ccc(C)cc2)n1 (configuration not stated),IC50,[3],16.3 µM (not active)
Cc1csc(NC(=O)c2ccc(OCC3CCCO3)cc2)n1 (configuration not stated),AC50,[13],2.55 µM (active)
same,AC50,[14],1.96 µM (active)
Cc1oc2c(c1C(=O)Nc1cccc3ccccc13)CCCC2,IC50,[3],> 50 µM (not active)
C[C@H]1CN(C2=C(Cl)C(=O)N(c3ccc(Cl)nc3)C2=O)CCN1,IC50,[15],> 50 µM (inconclusive)
CC(C)(C)c1ccc(C(=O)N/C(=C\c2cccc([N+](=O)[O-])c2)C(=O)Nc2cccc(C(=O)O)c2)cc1,IC50,[5],2.44 µM (active)
same,IC50,[6],1.48 µM (active)
CC(=O)Nc1cc(C(=O)N2CCN(C)CC2)ccc1S(=O)(=O)c1ccc(C)cc1,IC50,[3],0.796 µM (not active)
CCOC(=O)c1ccc(NC(=O)c2[nH]cnc2C(=O)N[C@@H](CCCCNC(=O)OC(C)(C)C)C(=O)OC(C)(C)C)cc1,EC50,[16],6.84 µM (active)
same,EC50,[17],> 150 µM (not active)
same,EC50,[18],55.6 µM (active)
same,IC50,[5],0.539 µM (active)
same,IC50,[6],0.463 µM (active)
Nc1nc(-c2ccccc2)cn1/N=C/c1cccc([N+](=O)[O-])c1,IC50,[15],> 100 µM (not active)
O=C1c2ccccc2C(=O)N1CCc1csc(-c2cccc(Cl)c2)n1,IC50,[3],3.44 µM (not active)
COc1ccc(N2CCN(C(=O)c3ccccc3N(C)S(=O)(=O)c3ccccc3)CC2)cc1,AC50,[4],8.08 µM (active)
CCOC(=O)CCNC(=O)Nc1ccc2nc(C)n(Cc3cccc(Cl)c3)c(=O)c2c1,IC50,[3],6.83 µM (not active)
COc1ccc(N2CCN(CCNC(=O)Nc3ccc([N+](=O)[O-])cc3OC)CC2)cc1,IC50,[19],> 100 µM (active)
same,AC50,[4],2.24 µM (active)
N#CCCN(C(=S)NC(=O)c1ccco1)c1ccccc1F,IC50,[1],> 66 µM (inactive)
same,IC50,[2],> 66 µM (inactive)
COc1ccc(Br)cc1/C=C/C(=O)NC(=S)Nc1ccc(Cl)c(C(=O)O)c1,EC50,[16],56.5 µM (active)
same,EC50,[18],5.98 µM (active)
same,IC50,[20],46.9 µM (active)
CCCN1C(=O)/C(=C\C=C2/Sc3ccccc3N2CC)SC1=S,EC50,[7],> 150 µM (not active)
same,EC50,[8],> 150 µM (not active)
same,EC50,[9],> 150 µM (inconclusive)
same,EC50,[10],> 150 µM (not active)
O=C1C(Cl)=C(N2CCN(Cc3ccccc3)CC2)C(=O)N1c1cccc(C(F)(F)F)c1,IC50,[15],> 50 µM (inconclusive)
CCOC(=O)N1CCC(NS(=O)(=O)c2cc3c(cc2Cl)NC(=O)CO3)CC1,CC50,[21],33.4 µM (active)
CC(NC(=O)c1ccc(N(C)C)cc1)C(c1cccs1)N1CCN(C)CC1 (configuration not stated),AC50,[4],1.24 µM (active)
O=C(COC(=O)CCc1ccccc1)Nc1cc([N+](=O)[O-])ccc1F,IC50,[5],5.19 µM (active)
same,IC50,[6],6.27 µM (active)
CCCN(CCC)S(=O)(=O)c1ccc(NC(=O)COc2ccccc2)cc1,IC50,[3],3.3 µM (not active)
COc1ccc(S(=O)(=O)Nc2nc3ccccc3nc2Nc2cccc(C(=O)O)c2)cc1,IC50,[20],34.5 µM (active)
Cn1cc(CN2CCC(C(=O)Nc3cccc(-c4cscn4)c3)CC2)cn1,EC50,[11],> 350 µM (not active)
same,EC50,[12],> 350 µM (not active)
NC(=O)CSc1nnc2ccc(-c3ccc(Cl)cc3)nn12,EC50,[11],> 350 µM (not active)
same,EC50,[12],> 350 µM (not active)
CCOc1ccccc1CN1CCN(S(C)(=O)=O)CC1,EC50,[11],> 350 µM (not active)
same,EC50,[12],> 350 µM (not active)
ON=CN=C(S)Nc1ncc(C(F)(F)F)cc1Cl,IC50,[1],> 66 µM (inactive)
same,IC50,[2],> 66 µM (inactive)
CCc1n[nH]c(C(=O)N2CCCC(Nc3ccc(C(C)C)cc3)C2)c1C (configuration not stated),AC50,[4],3.61 µM (active)
CC(C)(C)OC(=O)NCCCCCNC(=O)c1[nH]cnc1C(=O)N[C@@H](CCCCNC(=O)OC(C)(C)C)C(=O)OC(C)(C)C,IC50,[3],10.7 µM (not active)
O=C(CNC(=O)c1cccs1)OCC(=O)c1ccc([N+](=O)[O-])cc1,IC50,[22],> 80 µM (inactive)
O=C(O)Cc1ccc(NCc2ccccc2Cl)cc1,AC50,[4],4.81 µM (active)
Cc1ccc([C@@H]2CC=C(C(=O)O)[C@H](c3ccc(Br)cc3)N2S(=O)(=O)c2ccccc2C)cc1,IC50,[20],34 µM (active)
CCOC(=O)c1sc(NC(=O)CCCn2nc([N+](=O)[O-])c(Cl)c2C)c(C(=O)OCC)c1C,AC50,[23],6.34 µM (active)
same,AC50,[24],15.4 µM (active)
S=C(NN=Cc1ccccn1)N(Cc1ccccn1)Cc1ccccn1,IC50,[22],> 80 µM (inactive)
same,IC50,[19],1.59 µM (active)
Cc1ccc(NC2CCCN(C(=O)c3ccnc(Cl)c3)C2)cc1C (configuration not stated),AC50,[4],3.32 µM (active)
CN(C)S(=O)(=O)c1cccc(NC(=O)COc2ccccc2C(=O)Nc2ccccc2)c1,AC50,[25],30.6 µM (active)
same,AC50,[13],20.1 µM (active)
same,AC50,[14],22.9 µM (active)
COc1ccc(N/N=C(\C#N)C(=N)N2CCCCC2)cc1,AC50,[4],0.077 µM (active)
